Assay results reported in patent US11099176B2 (priority 2015, dated 2021).

Experiments:
Type in all cases: binding
[1] = system: Marinobacter sp. msLacBP6 variant 187C, L70I, SEQ ID NO: 52, Acrylodan conjugate; experiment: Fluorescence titration of conjugate (affinity tuning); set-up: key to appKd (alanine): nb: no binding
[2] = system: Marinobacter sp. msLacBP6 variant 187C, F68L, SEQ ID NO: 49, Badan conjugate; experiment: as above; set-up: key to appKd (alanine): nb: no binding
[3] = system: Marinobacter sp. msLacBP6 variant 187C, D220E, SEQ ID NO: 56, Badan conjugate; experiment: as above; set-up: key to appKd (alanine): nb: no binding
[4] = system: Marinobacter sp. msLacBP6 variant 187C, F68L, SEQ ID NO: 49, Acrylodan conjugate; experiment: as above; set-up: key to appKd (alanine): nb: no binding
[5] = system: Marinobacter sp. msLacBP6 variant 187C, F68M, SEQ ID NO: 50, Badan conjugate; experiment: as above; set-up: key to appKd (alanine): nb: no binding
[6] = system: Marinobacter sp. msLacBP6 variant 187C, L70I, SEQ ID NO: 52, Badan conjugate; experiment: as above; set-up: key to appKd (alanine): nb: no binding
[7] = system: Marinobacter sp. msLacBP6 variant 187C, D220E, SEQ ID NO: 56, Acrylodan conjugate; experiment: as above; set-up: key to appKd (alanine): nb: no binding
[8] = system: Marinobacter sp. msLacBP6 variant 187C, F68M, SEQ ID NO: 50, Acrylodan conjugate; experiment: as above; set-up: key to appKd (alanine): nb: no binding
[9] = system: Marinobacter sp. msLacBP6 187C mutants (variants of Table 7); experiment: Affinity summary of msLacBP6 187C affinity-tuning mutants; details: all mutants
Description: In the PCS we mutated F68 (F98 in ttLacBP1) and D220 (D250 in ttLacBP1). […] It could therefore be considered part of a secondary complementary surface layer (SCS). In the interface we mutated L70 (L100 in ttLacBP1), which is located at the periphery of the lactate-binding site, and forms a contact from the N- to the C-terminal domain across the inter-domain interface.
Both PCS and SCS mutations perturbed the spectral shapes of the lactate-mediated responses. […] These affinity-tuned sensors therefore provide a suitable set for clinical chemistry applications.

[10] = system: Marinobacter sp. msLacBP6 conjugates (variants of Table 5); experiment: Affinity summary of msLacBP6 single-cysteine conjugates

Compound: C[C@H](N)C(=O)O [L-alanine]
- appKd (alanine) [1]: n/b
- appKd (alanine) [2]: n/b
- appKd (alanine) [3]: n/b
- appKd (alanine) [4]: n/b
- appKd (alanine) [5]: n/b
- appKd (alanine) [6]: n/b
- appKd (alanine) [7]: n/b
- appKd (alanine) [8]: n/b
- binding to L-alanine [9]: None of the mutants bound L-alanine
- binding to L-alanine [10]: no binding
